Reference: patent US20240284906A1, “HERBICIDAL COMPOSITIONS CONTAINING CINMETHYLINE AND ETHOFUMESATE” (BAYER AKTIENGESELLSCHAFT, priority 2021, published 2024)

Key:
Veronica persica = test: Pre-emergence weed control, pot trial; type: in vivo; conditions: pre-emergence (BBCH 00), 27 DAA, scale 0-100
Description: (§1) The following plant species were selected for the tests:
(§2) The seeds of the abovementioned biotypes were sown in 8 cm pots (LSI; pH 7.4; % C org 2.2). The temperature was kept at about 23°/15° C. day/night. After the herbicides had been applied (300 l water/ha), the pots were irrigated from beneath as required. Two trials were conducted. In a pre-emergence trial, the herbicides were applied directly after sowing at the BBCH 00 growth stage. In a post-emergence trial, the herbicides were deployed at the BBCH 11-12 growth stage.
(§3) The active herbicidal ingredient cinmethylin was used as commercial emulsifiable concentrate (EC) LUMIMAX. Ethofumesate was used in the form of the commercial suspension concentrate (SC) Nortron. A methylated seed oil (Mero) was added to the spray liquids in an amount of 1 l/ha in order to assure good retention characteristics.
(§4) The percentage of weed control (2 repetitions) was rated 27 days after the application of herbicide (DAA) on a scale of 0-100. A rating of 0 means no control, and 100 means complete control.
(§5) According to Colby, synergistic effects of active herbicidal ingredients are indicated when the measured efficacy is higher than that expected, which is calculated by its formula for 2-substance mixtures: EC=A+B−(A×B)/100

Avena fatua = test: Pre-emergence weed control, pot trial; type: in vivo; conditions: pre-emergence (BBCH 00), 27 DAA, scale 0-100
Description: as §1, §2, §3, §4, §5

MATIN [1] = test: Post-emergence weed control, pot trial; type: in vivo, Matricaria inodora; conditions: post-emergence (BBCH 11-12), 27 DAA, scale 0-100
Description: as §1, §2, §3, §4, §5

MATIN [2] = test: Pre-emergence weed control, pot trial; type: in vivo, Matricaria inodora; conditions: pre-emergence (BBCH 00), 27 DAA, scale 0-100
Description: as §1, §2, §3, §4, §5

Lolium rigidum = test: Post-emergence weed control, pot trial; type: in vivo; conditions: post-emergence (BBCH 11-12), 27 DAA, scale 0-100
Description: as §1, §2, §3, §4, §5

Alopecurus myosuroides = test: Post-emergence weed control, pot trial; type: in vivo; conditions: post-emergence (BBCH 11-12), 27 DAA, scale 0-100
Description: as §1, §2, §3, §4, §5

Abuthilon theophrasti = test: Post-emergence weed control, pot trial; type: in vivo; conditions: post-emergence (BBCH 11-12), 27 DAA, scale 0-100
Description: as §1, §2, §3, §4, §5

Question: How did the “Efficacy (percentage of weed control) VERPE” value (Veronica persica; 50 g ai/ha) turn out when Cc1ccccc1CO[C@@H]1C[C@]2(C(C)C)CC[C@@]1(C)O2 (racemic) [Cinmethylin, (+/−)-2-exo-(2-methylbenzyloxy)-1-methyl-4-isopropyl-7-oxabicyclo[2.2.1]heptane] was run?
Answer: 20%

Question: And the “Efficacy (percentage of weed control) AVEFA” value (Avena fatua; 100 g ai/ha)?
Answer: 70%

Question: What about the “Efficacy (percentage of weed control) MATIN” value (MATIN [1]; 25 g ai/ha) of the same molecule?
Answer: 20%

Question: And the “Efficacy (percentage of weed control) MATIN” value (MATIN [2]; 50 g ai/ha)?
Answer: 70%

Question: And the “Efficacy (percentage of weed control) LOLRI” value (Lolium rigidum; 100 g ai/ha)?
Answer: 63%

Question: And the “Efficacy (percentage of weed control) ALOMY” value (Alopecurus myosuroides; 100 g ai/ha)?
Answer: 78%

Question: What about the “Efficacy (percentage of weed control) ABUTH” value (Abuthilon theophrasti; 100 g ai/ha) of the same molecule?
Answer: 35%

Question: CCOC1Oc2ccc(OS(C)(=O)=O)cc2C1(C)C (centres unmarked) [Ethofumesate] was tested. Which “Efficacy (percentage of weed control) VERPE” value (Veronica persica; 10 g ai/ha) did it give?
Answer: 0%

Question: What about the “Efficacy (percentage of weed control) AVEFA” value (Avena fatua; 20 g ai/ha) of the same molecule?
Answer: 0%

Question: And the “Efficacy (percentage of weed control) MATIN” value (MATIN [1]; 50 g ai/ha)?
Answer: 10%

Question: What about the “Efficacy (percentage of weed control) MATIN” value (MATIN [2]; 10 g ai/ha) of the same molecule?
Answer: 0%

Question: What about the “Efficacy (percentage of weed control) LOLRI” value (Lolium rigidum; 20 g ai/ha) of the same molecule?
Answer: 0%

Question: What about the “Efficacy (percentage of weed control) ALOMY” value (Alopecurus myosuroides; 20 g ai/ha) of the same molecule?
Answer: 0%

Question: What about the “Efficacy (percentage of weed control) ABUTH” value (Abuthilon theophrasti; 20 g ai/ha) of the same molecule?
Answer: 0%
